Target: Kv7.2/7.3 (Homo sapiens, UniProt O43525+O43526)
Experiment: Kv7.2/7.3 Activation Assay, QPatch single concentration screen
Assay type: cell-based
Parameters: host or cells: HEK cells, tetracycline-inducible expression; key: 1.2-2.9 (+); 3-3.9 (++); >4 (+++) fold increase over baseline; O represents open channel at holding potential
Settings: Kv7.2/Kv7.3 co-expressing HEK cells, compound concentration 3 μM, steady-state current at end of 2 s pulse to −30 mV
Experimental: Kv7.2/7.3 Activation Assay
The ability of compounds to potentiate K-currents in Kv7.2/7.3 containing HEK cells was assessed using planar patch-clamp on the QPatch automated screening platform.
The hKv7.2/7.3 cell line was obtained from Chantest (Cleveland, Ohio 44128) cat. #CT6147. These HEK cells will express the Kv7.2/7.3 ion channels when induced.
Cells were maintained in a media containing DMEM/F12; 50/50 (GIBCO cat. #11330), 10% Fetal Bovine Serum (FBS) (GIBCO cat. #26140), 100 units/mL Penicillin-Streptomycin (GIBCO cat. #15140), 0.005 mg/mL Blasticidin (INVIVOGEN cat. #ant-b1-1), 0.5 mg/mL Geneticin (GIBCO cat. #10131), 0.1 mg/mL Zeocin (GIBCO cat. #R25001). Cells used in the electrophysiology assay were maintained in a media without Blasticidin, Geneticin and Zeocin for 2 days and channel expression was induced by adding tetracycline (BIOLINE cat. #BIO-87030) at a final concentration of 1 mg/mL. Cells were grown in T-175 flask to ˜75% confluency. Currents were recorded 24 hours after channel induction.
Test compounds were prepared by performing serial dilutions on a Biomek NX^P (BECKMAN COULTER). Final dilutions were made in external recording solution with a final DMSO concentration of 0.1% DMSO. For single concentration screens each plate had 10 μM retigabine as a positive control and 0.1% DMSO as a negative control.
On the day of the experiment cells were washed with Hank's Balanced Salt Solution (HBBS) (GIBCO cat. #14175) and harvested with Tryple (GIBCO cat. #12604). Cells were then centrifuged at 2000 rpm for 5 minutes and resuspended in CHO-S-SFM (GIBCO cat. #12052) at ˜3×10^6 cells/mL. Cells were stirred for 30 minutes before experiments were started. External recording solution contained (in mM): NaCl (145), KCl (4), CaCl2 (2), MgCl2 (1), HEPES (10) and Glucose (10); pH was adjusted to 7.4 with NaOH and the osmolarity was adjusted to 300-305 mOsM with sucrose if necessary. Internal solution contained (in mM): KCl (125), KF (10), EGTA (5), Na2ATP (5), MgCl2 (3.2), HEPES (5); pH was adjusted to 7.2 with KOH and the osmolarity was adjusted to 298-302 mOsM with sucrose.
Potassium channel activity was measured on the QPatch HTX (Sophion Bioscience) using QPlates with 48-wells/plate. Each cell was taken as an independent experiment and only one compound was tested per well. Potassium channel activity was elicited by holding at −80 mV and stepping to −30 mV for 2 s followed by a 100 ms pulse to −120 mV.
Single Concentration Screen:
Baseline conditions were obtained by recording 5 sweeps in the external solution only, this was repeated for three applications of the external solution. The effect of test compounds on elicited current was then assessed by recording 5 sweeps in the presence of a 3 μM compound solution. The steady-state current at the end of the 2 s pulse to −30 mV was measured to determine the fold increase from baseline.

CC(C)(O)c1ccc2nc(NC(=O)CC3CC(F)(F)C3(F)F)n(C3(C)CCC3)c2c1 (single isomer, unassigned) [Example 376, N-(6-(2-hydroxypropan-2-yl)-1-(1-methylcyclobutyl)-1H-benzo[d]imidazol-2-yl)-2-(2,2,3,3-tetrafluorocyclobutyl)acetamide]
Kv7.2/7.3 Activity: increase over baseline in current: + (1.2-2.9 (+))

COC(=O)Cc1c(F)ccc2nc(NC(=O)CC(C)(C)C)n(C3CCC3)c12 [Example 447, methyl 2-(1-cyclobutyl-2-(3,3-dimethylbutanamido)-6-fluoro-1H-benzo[d]imidazol-7-yl)acetate]
Kv7.2/7.3 Activity: increase over baseline in current: +++ (>4 (+++) fold increase over baseline)

CC(C)(C)CC(=O)Nc1nc2ccc(F)cc2n1C1CCC1 [Example 417, N-(1-cyclobutyl-6-fluoro-1H-benzo[d]imidazol-2-yl)-3,3-dimethylbutanamide]
Kv7.2/7.3 Activity: increase over baseline in current: ++ (3-3.9 (++))

CC(C)(C)CC(=O)Nc1nc2ccc(OC(F)F)cc2n1C1(C)CCC1 [Example 346, N-(6-(difluoromethoxy)-1-(1-methylcyclobutyl)-1H-benzo[d]imidazol-2-yl)-3,3-dimethylbutanamide]
Kv7.2/7.3 Activity: increase over baseline in current: ++ (3-3.9 (++))

CC(C)(C)CC(=O)Nc1nc2ccc(C#N)cc2n1C(C)(C)C(F)(F)F [Example 401, N-(6-cyano-1-(1,1,1-trifluoro-2-methylpropan-2-yl)-1H-benzo[d]imidazol-2-yl)-3,3-dimethylbutanamide]
Kv7.2/7.3 Activity: increase over baseline in current: ++ (3-3.9 (++))

CC(C)(O)c1ccc2nc(NC(=O)CC(C)(O)c3ccccc3)n(C34CC(C3)C4)c2c1 (single isomer, unassigned) [Example 335, N-(1-(bicyclo[1.1.1]pentan-1-yl)-6-(2-hydroxypropan-2-yl)-1H-benzo[d]imidazol-2-yl)-3-hydroxy-3-phenylbutanamide]
Kv7.2/7.3 Activity: increase over baseline in current: O

CC(O)(CC(=O)Nc1nc2ccc(C#N)cc2n1C1(C)CCC1)c1c(F)cccc1F (single isomer, unassigned) [Example 467, N-(6-cyano-1-(1-methylcyclobutyl)-1H-benzo[d]imidazol-2-yl)-3-(2,6-difluorophenyl)-3-hydroxybutanamide]
Kv7.2/7.3 Activity: increase over baseline in current: + (1.2-2.9 (+))

CC(O)(CC(=O)Nc1nc2c(F)cc(C#N)cc2n1C(C)(C)C)c1cccc(F)c1 (single isomer, unassigned) [Example 339, N-(1-(tert-butyl)-6-cyano-4-fluoro-1H-benzo[d]imidazol-2-yl)-3-(3-fluorophenyl)-3-hydroxybutanamide]
Kv7.2/7.3 Activity: increase over baseline in current: O

COCc1c(Cl)ccc2nc(NC(=O)CC(C)(C)C)n(C3CCC3)c12 [Example 399, N-(6-chloro-1-cyclobutyl-7-(methoxymethyl)-1H-benzo[d]imidazol-2-yl)-3,3-dimethylbutanamide]
Kv7.2/7.3 Activity: increase over baseline in current: +++ (>4 (+++) fold increase over baseline)

CC(C)(CC(=O)Nc1nc2ccc(C#N)cc2n1C1(C)CCC1)C1CC1 [Example 379, N-(6-cyano-1-(1-methylcyclobutyl)-1H-benzo[d]imidazol-2-yl)-3-cyclopropyl-3-methylbutanamide]
Kv7.2/7.3 Activity: increase over baseline in current: ++ (3-3.9 (++))

COc1cccc2nc(NC(=O)CC(C)(C)C)n(C3CCC3)c12 [Example 476, N-(1-cyclobutyl-7-methoxy-1H-benzo[d]imidazol-2-yl)-3,3-dimethylbutanamide]
Kv7.2/7.3 Activity: increase over baseline in current: + (1.2-2.9 (+))

CC(C)(CC(=O)Nc1nc2cccc(F)c2n1C1CCC1)C(F)(F)F [Example 408, N-(1-cyclobutyl-7-fluoro-1H-benzo[d]imidazol-2-yl)-4,4,4-trifluoro-3,3-dimethylbutanamide]
Kv7.2/7.3 Activity: increase over baseline in current: ++ (3-3.9 (++))

COc1cc(Br)cc2c1nc(NC(=O)CC(C)(C)C)n2C1CCC1 [Example 382, N-(6-bromo-1-cyclobutyl-4-methoxy-1H-benzo[d]imidazol-2-yl)-3,3-dimethylbutanamide]
Kv7.2/7.3 Activity: increase over baseline in current: +++ (>4 (+++) fold increase over baseline)

C[C@H](CC(=O)Nc1nc2ccc(C(C)(C)O)cc2n1C1CCC1)c1ccccc1 [Example 336, (R)-N-(1-cyclobutyl-6-(2-hydroxypropan-2-yl)-1H-benzo[d]imidazol-2-yl)-3-phenylbutanamide]
Kv7.2/7.3 Activity: increase over baseline in current: + (1.2-2.9 (+))

CC(O)(CC(=O)Nc1nc2ccc(C#N)cc2n1C1(C)CCC1)c1c(F)cccc1F (single isomer, unassigned) [Example 384, N-(6-cyano-1-(1-methylcyclobutyl)-1H-benzo[d]imidazol-2-yl)-3-(2,6-difluorophenyl)-3-hydroxybutanamide]
Kv7.2/7.3 Activity: increase over baseline in current: ++ (3-3.9 (++))

CC(C)(O)c1ccc2nc(NC(=O)CC(C)(O)c3ccccc3)n(C34CC(C3)C4)c2c1 (single isomer, unassigned) [Example 371, N-(1-(bicyclo[1.1.1]pentan-1-yl)-6-(2-hydroxypropan-2-yl)-1H-benzo[d]imidazol-2-yl)-3-hydroxy-3-phenylbutanamide]
Kv7.2/7.3 Activity: increase over baseline in current: O

CC(C)(C)CC(=O)Nc1nc2cc(F)c(C(C)(C)O)c(F)c2n1C1CCC1 [Example 362, N-(1-cyclobutyl-5,7-difluoro-6-(2-hydroxypropan-2-yl)-1H-benzo[d]imidazol-2-yl)-3,3-dimethylbutanamide]
Kv7.2/7.3 Activity: increase over baseline in current: ++ (3-3.9 (++))

CC(C)(C)CC(=O)Nc1nc2ccc(OC(F)F)cc2n1C1CCC1 [Example 389, N-(1-cyclobutyl-6-(difluoromethoxy)-1H-benzo[d]imidazol-2-yl)-3,3-dimethylbutanamide]
Kv7.2/7.3 Activity: increase over baseline in current: ++ (3-3.9 (++))

CC(C)(CC(=O)Nc1nc2cc(F)c(OC(F)F)cc2n1C1(C)CCC1)C1CC1 [Example 367, 3-cyclopropyl-N-(6-(difluoromethoxy)-5-fluoro-1-(1-methylcyclobutyl)-1H-benzo[d]imidazol-2-yl)-3-methylbutanamide]
Kv7.2/7.3 Activity: increase over baseline in current: ++ (3-3.9 (++))

CC(C)(O)c1cc(F)c2nc(NC(=O)CC(C)(C)C(F)F)n(C3CCC3)c2c1 [Example 456, N-(1-cyclobutyl-4-fluoro-6-(2-hydroxypropan-2-yl)-1H-benzo[d]imidazol-2-yl)-4,4-difluoro-3,3-dimethylbutanamide]
Kv7.2/7.3 Activity: increase over baseline in current: ++ (3-3.9 (++))

COc1ccc2nc(NC(=O)CC(C)(C)C)n(C3CCC3)c2c1F [Example 429, N-(1-cyclobutyl-7-fluoro-6-methoxy-1H-benzo[d]imidazol-2-yl)-3,3-dimethylbutanamide]
Kv7.2/7.3 Activity: increase over baseline in current: +++ (>4 (+++) fold increase over baseline)

CC(C)(CC(=O)Nc1nc2c(F)cc(O)cc2n1C1CCC1)C(F)(F)F [Example 359, N-(1-cyclobutyl-4-fluoro-6-hydroxy-1H-benzo[d]imidazol-2-yl)-4,4,4-trifluoro-3,3-dimethylbutanamide]
Kv7.2/7.3 Activity: increase over baseline in current: ++ (3-3.9 (++))

C[C@H](C(=O)Nc1nc2ccc(C(C)(C)O)cc2n1CC(F)(F)F)C(C)(C)C [Example 407, (S)-N-(6-(2-hydroxypropan-2-yl)-1-(2,2,2-trifluoroethyl)-1H-benzo[d]imidazol-2-yl)-2,3,3-trimethylbutanamide]
Kv7.2/7.3 Activity: increase over baseline in current: ++ (3-3.9 (++))

CC(C)(C)CC(=O)Nc1nc2c(F)cc(C#N)cc2n1C1CCC1 [Example 411, N-(6-cyano-1-cyclobutyl-4-fluoro-1H-benzo[d]imidazol-2-yl)-3,3-dimethylbutanamide]
Kv7.2/7.3 Activity: increase over baseline in current: +++ (>4 (+++) fold increase over baseline)

Reference: US10851067B2, “Kv7 channel activators compositions and methods of use” (Knopp Biosciences LLC, priority 2018, dated 2020)
